Measurements taken from patent US20260138957A1, “UREA-LINKED 2-AMINOIMIDAZOLE DIMER POTENTIATORS” (UNIVERSITY OF NOTRE DAME DU LAC, priority 2022, published 2026).
In brackets after ≈: the same amount, converted by molar mass.

Experiments:
AB5075 = test: Potentiation of azithromycin, erythromycin and rifampin against AB5075; assay type: cell-based, Acinetobacter baumannii; conditions: for activity in combination with AZM, ERM and RIF (in words): AB5075, adjuvant at ≤30% their MIC; for fold decrease of RIF MIC: AB5075, adjuvant at 10 μM
[1] = system: A. baumannii strain 5075 (AB5075); test: Clarithromycin potentiation against AB5075 (CLR MIC in presence of adjuvant); assay type: cell-based, Acinetobacter baumannii; conditions: for CLR potentiation activity (in words): AB5075, 30 μM
AB 5075 = test: Colistin MIC in absence or presence of compounds against AB 5075; assay type: cell-based, Acinetobacter baumannii; conditions: adjuvant at 30 μM, AB5075
From the text: However, dropping LOS comes with fitness costs such as reduced growth rates, lower virulence, and increased sensitivity towards certain antibiotics.

[2] = system: A. baumannii strain 5075 (AB5075); test: Standalone MIC against AB5075 (compound or antibiotic alone); assay type: cell-based, Acinetobacter baumannii; design: MIC against AB5075 (inherent anti-bacterial activity): unit not given beside the values; conditions: compound alone; for MIC: Acinetobacter baumannii, AB5075
From the text: Dimers were first analyzed for standalone toxicity against AB5075.

[3] = Microsomal (metabolic) stability; assay type: in vitro ADME; conditions: 60 minutes
[4] = system: panel of A. baumannii isolates; test: Standalone MIC/toxicity against panel of A. baumannii isolates; assay type: cell-based, Acinetobacter baumannii
[5] = system: panel of A. baumannii isolates; test: CLR potentiation against panel of A. baumannii isolates; assay type: cell-based, Acinetobacter baumannii; conditions: 25 AB strains, adjuvant at 10 μM (4.8 μg/mL) or less
Plasma stability = assay type: in vitro ADME; conditions: 4 hours
K. pneumoniae 2146 = test: Combination with RIF against K. pneumoniae 2146; assay type: cell-based, Klebsiella pneumoniae; conditions: K. pneumoniae 2146, compared with the parent dimers
A. baumannii = test: CLR adjuvant activity with exogenous LOS added to the media; assay type: cell-based, Acinetobacter baumannii; conditions: LOS from AB5075 at 0.2 mg/mL or 0.5 mg/mL
Protocol: First, we examined the impact that addition of MgCl2 had on activity. Divalent cations, such as Mg^2+, are known to stabilize the outer membrane of gram-negative bacteria and the activity of membrane disruptors are known to be muted/abrogated by the addition of such cations. When the media was supplemented with MgCl2 (20 mM final concentration), activity was essentially abolished. As suppression of activity could conceivably originate from either blocking the compound's mechanism of action or simply making the membrane more impermeable that leads to the inability of the compound to penetrate the outer membrane, we next studied the impact that the addition of exogenous LOS had upon activity.

HepG2 cells = test: Cytotoxicity, XTT assay with HepG2 cells; conditions: mammalian cell toxicity

Compound	Clarithromycin (CLR) MIC ([1]; adjuvant at 7.5 μM, AB5075) [µg/mL]	Fold Reduction of CLR MIC ([1]; adjuvant at 7.5 μM, AB5075) [fold]	Clarithromycin (CLR) MIC ([1]; adjuvant at 10 μM, AB5075) [µg/mL]	Fold Reduction of CLR MIC ([1]; adjuvant at 10 μM, AB5075) [fold]	Clarithromycin (CLR) MIC ([1]; adjuvant at 20 μM, AB5075) [µg/mL]	Fold Reduction of CLR MIC ([1]; adjuvant at 20 μM, AB5075) [fold]	Clarithromycin (CLR) MIC ([1]; adjuvant at 30 μM, AB5075) [µg/mL]	Fold Reduction of CLR MIC ([1]; adjuvant at 30 μM, AB5075) [fold]	MIC [2] [µM]	activity in combination with AZM, ERM and RIF (in words) (AB5075)	Clarithromycin (CLR) MIC ([1]; adjuvant at 5 μM, AB5075) [µg/mL]	Fold Reduction of CLR MIC ([1]; adjuvant at 5 μM, AB5075) [fold]	CLR potentiation activity (in words) [1]	other results
Nc1nc(-c2ccc(NC(=O)Nc3ccc(-c4c[nH]c(N)n4)cc3)cc2)c[nH]1 [Compound 3]	8	4	4	8	0.5	64	0.125	256	–	significant activity	–	–	–	Colistin MIC (AB 5075): 2 µg/mL; MIC against AB5075 (inherent anti-bacterial activity) ([2]; newly synthesized material): > 200
Nc1nc(-c2ccc(NC(=O)Nc3ccc(-c4c[nH]c(N)n4)c(F)c3)cc2F)c[nH]1 [Compound 9a]	0.5	64	0.125	256	0.0625	512	0.03125	1024	> 200	significant activity	2	16	–	microsomal stability (in words) [3]: steady concentration over 60 minutes; toxicity of compound alone (in words) [4]: no toxicity; fold decrease of RIF MIC (AB5075): 32 fold; lowering of CLR MIC values [5]: at least four-fold; plasma stability (in words) (Plasma stability): steady concentration over 4 hours; potentiation of RIF (in words) (K. pneumoniae 2146): greater potentiation activity at lower concentrations; CLR adjuvant activity with exogenous LOS (in words) (A. baumannii): no loss of adjuvant activity
Nc1nc(-c2cc(F)cc(NC(=O)Nc3cc(F)cc(-c4c[nH]c(N)n4)c3)c2)c[nH]1 [Compound 9g]	0.25	128	0.125	256	0.0625	512	≤0.0625	–	> 200	significant activity	0.5	64	–	toxicity of compound alone (in words) [4]: no toxicity; IC50, HepG2 cells (HepG2 cells): > 256 µg/mL; IC50 (HepG2 cells; read-out: IC50, HepG2 cells): > 530 µM; fold decrease of RIF MIC (AB5075): 32 fold; CLR MIC ([1]; adjuvant at 2.5 μM, AB5075): 1 µg/mL; Fold Reduction of CLR MIC ([1]; adjuvant at 2.5 μM, AB5075): 32 fold; lowering of CLR MIC values [5]: at least four-fold; potentiation of RIF (in words) (K. pneumoniae 2146): greater potentiation activity at lower concentrations
Nc1nc(-c2cccc(NC(=O)Nc3cccc(-c4c[nH]c(N)n4)c3F)c2F)c[nH]1 [Compound 9f]	2	16	1	32	0.5	64	0.25	128	> 200	–	–	–	–	–
COc1cc(-c2c[nH]c(N)n2)ccc1NC(=O)Nc1ccc(-c2c[nH]c(N)n2)cc1OC [Compound 9d]	–	–	–	–	–	–	8	4	200 (≈ 86.9 µg/mL)	–	–	–	abolished all activity	–

Continued, in another order:

Clarithromycin (CLR) MIC ([1]; adjuvant at 7.5 μM, AB5075) [µg/mL]	Fold Reduction of CLR MIC ([1]; adjuvant at 7.5 μM, AB5075) [fold]	Clarithromycin (CLR) MIC ([1]; adjuvant at 10 μM, AB5075) [µg/mL]	Fold Reduction of CLR MIC ([1]; adjuvant at 10 μM, AB5075) [fold]	Clarithromycin (CLR) MIC ([1]; adjuvant at 20 μM, AB5075) [µg/mL]	Fold Reduction of CLR MIC ([1]; adjuvant at 20 μM, AB5075) [fold]	Clarithromycin (CLR) MIC ([1]; adjuvant at 30 μM, AB5075) [µg/mL]	Fold Reduction of CLR MIC ([1]; adjuvant at 30 μM, AB5075) [fold]	MIC [2] [µM]	Compound	activity in combination with AZM, ERM and RIF (in words) (AB5075)	Clarithromycin (CLR) MIC ([1]; adjuvant at 5 μM, AB5075) [µg/mL]	Fold Reduction of CLR MIC ([1]; adjuvant at 5 μM, AB5075) [fold]	CLR potentiation activity (in words) [1]	other results
2	16	1	32	0.5	64	0.0625	512	> 200	Nc1nc(-c2ccc(NC(=O)Nc3ccc(-c4c[nH]c(N)n4)c(F)c3)cc2)c[nH]1 [Compound 9m]	–	–	–	–	–
0.25	128	0.125	256	0.125	256	0.0625	512	> 200	Nc1nc(-c2cc(F)cc(NC(=O)Nc3ccc(-c4c[nH]c(N)n4)c(F)c3)c2)c[nH]1 [Compound 9j]	–	1	32	–	–
–	–	–	–	–	–	32	1	> 200	Cc1cc(-c2c[nH]c(N)n2)ccc1NC(=O)Nc1ccc(-c2c[nH]c(N)n2)cc1C [Compound 14c]	–	–	–	abolished all activity	–
–	–	–	–	–	–	32	1	> 200	Nc1nc(-c2ccc(NC(=O)Nc3ccc(-c4c[nH]c(N)n4)c(Cl)c3)cc2Cl)c[nH]1 [Compound 14b]	–	–	–	abolished all activity	–
